One compound from article PMC9598282 (Antibiotics, 2022) can be followed below.

Values after ≈ are worked out from the molar mass of the structure shown. Bridge positions count the residues as written; N and C are the ends. Square brackets hold non-standard residues; d marks the D form. Peptide text beside a SMILES is read from it. Dab = NCC[C@H](N)C(=O)O

The test system of one test is A. baumannii 92247. The test is classed as cell-based, Acinetobacter baumannii. The following applies: 92247, 18 h. Here is the method:
(§1) For the preparation of the bacterial solution, overnight grown culture was diluted in 0.85% saline solution, adjusted to 0.5 McFarland turbidity and further diluted in Mueller–Hinton broth for inoculation to a final concentration of 5 × 10^5 colony forming units/mL (CFU/mL). The agents were serially diluted two-fold in a 96-well plate, and equal volumes of bacterial solution were subsequently added to the designated wells. The well consisting of bacterial solution served as the positive control, while the well containing only media served as the negative control. The plate was then incubated at 37 °C for 18 h. After incubation, an Emax Plus microplate reader (Molecular Devices, Union City, CA, USA) was used to measure the optical density (OD) at a wavelength of 590 nm to confirm the turbidity. The antibacterial activity corresponded to the MIC, which is defined as the lowest concentration of the agent necessary to inhibit visible bacterial growth.

Another test concerns A. baumannii ATCC 17978. It is filed as cell-based, Acinetobacter baumannii. The settings on record: ATCC 17978, 18 h. Here is the method:
as §1

In another test the test system is A. baumannii LAC-4. The test is classed as cell-based, Acinetobacter baumannii. The following applies: LAC-4, 18 h. Here is the method: as §1
A further test relates to P. aeruginosa PA 107092. In words: MIC, broth microdilution. The test is classed as cell-based, Pseudomonas aeruginosa. The following applies: β-lactamase harboring isolate. Here is the method: as §1
The test system of another test is P. aeruginosa PA 108590. The test is described as follows: MIC, broth microdilution. The test is classed as cell-based, Pseudomonas aeruginosa. The settings on record: β-lactamase harboring isolate. Here is the method: as §1
The test system of a further test is P. aeruginosa PA 109084. The test is described as follows: MIC, broth microdilution. It is filed as cell-based, Pseudomonas aeruginosa. The settings on record: β-lactamase harboring isolate. Here is the method:
as §1

Another test has as its system P. aeruginosa PA 86052. In words: MIC, broth microdilution. The test is classed as cell-based, Pseudomonas aeruginosa. The following applies: β-lactamase harboring isolate. Here is the method: as §1
A further test relates to P. aeruginosa PA 88949. In words: MIC, broth microdilution. The test is classed as cell-based, Pseudomonas aeruginosa. The settings on record: β-lactamase harboring isolate. Here is the method: as §1
The subject of the next test is E. coli 107115. The test is described as follows: microbe, parasite or virus in culture. The test is classed as cell-based, Escherichia coli. Here is the method:
(§2) The adjuvant properties of the guanidinylated polymyxins were evaluated using the checkerboard assay as previously described. The bacterial solution was prepared as described in the antimicrobial susceptibility assay. The antibiotic of interest and the adjuvant were serially diluted two-fold along the x- and y-axis on a 96-well plate, respectively, resulting in varying concentrations of both agents in each well. Equal volumes of bacterial solution were added to the designated wells. The well consisting of bacterial solution served as the positive control, while the wells containing only media served as the negative control. The plate was then incubated at 37 °C for 18 h. After incubation, an Emax Plus microplate reader (Molecular Devices, Union City, CA, USA) was used to measure the OD at a wavelength of 590 nm to confirm the turbidity. The fractional inhibitory concentration (FIC) index was then determined to establish the relationship between the antibiotic and adjuvant. The FIC index corresponds to the sum of the FICs of the antibiotic and adjuvant. The FIC of each agent is calculated by dividing its MIC when it is used in combination by its MIC when used alone. FIC indices ≤0.5, 0.5 < x ≤ 4 and >4 indicate synergy, additivity and antagonism, respectively.

Another test concerns E. coli 94474. The test is described as follows: Checkerboard assay. It is filed as cell-based, Escherichia coli. Here is the method:
as §2

A further test relates to K. pneumoniae 113250. In words: Checkerboard assay. The test is classed as cell-based, Klebsiella pneumoniae. Here is the method: as §2
Another test concerns K. pneumoniae 113254. The test is described as follows: Checkerboard assay. The test is classed as cell-based, Klebsiella pneumoniae. Here is the method: as §2
Where [1] appears, read: agent alone, one value per checkerboard plate.

As for `CC(C)C[C@@H]1NC(=O)[C@@H](Cc2ccccc2)NC(=O)[C@H](CCN)NC(=O)[C@@H](NC(=O)[C@H](CCN)NC(=O)[C@@H](N)[C@@H](C)O)CCNC(=O)[C@H]([C@@H](C)O)NC(=O)[C@H](CCN)NC(=O)[C@H](CCN)NC1=O` [PMBN, polymyxin B nonapeptide] (H-T[Dab][Dab][Dab][dF]L[Dab][Dab]T; lactam 3-C (inferred); N-terminus assumed), the minimal inhibitory concentration (MIC) is >256 µg/mL against A. baumannii 92247; >256 µg/mL against A. baumannii ATCC 17978; >256 µg/mL with A. baumannii LAC-4; 64 µg/mL (≈ 66.4 µM) in the test with P. aeruginosa PA 107092; 1 µg/mL (≈ 1.04 µM) against P. aeruginosa PA 108590; 32 µg/mL (≈ 33.2 µM) against P. aeruginosa PA 109084. Also, the MIC with P. aeruginosa PA 86052 and in the test with P. aeruginosa PA 88949 was 16 µg/mL (≈ 16.6 µM) each time. Further, the MIC alone in the test with E. coli 107115 (107115, 18 h) was < 256 µg/mL; in the test on E. coli 107115 (setting [1]) it was > 256 µg/mL; in the test on E. coli 94474 (setting [1]), > 256 µg/mL; in the test with K. pneumoniae 113250 (setting [1]), > 256 µg/mL; with K. pneumoniae 113254 (setting [1]) it was > 256 µg/mL. Further, the Fold-potentiation of erythromycin in the test on E. coli 107115 (with 1 μg/mL adjuvant) was 32; with E. coli 94474 (with 4 μg/mL adjuvant), 1; in the test on K. pneumoniae 113250 (with 8 μg/mL adjuvant) it was 8; in the test on K. pneumoniae 113254 (with 8 μg/mL adjuvant), 4. Besides, the Fold-potentiation of rifampicin amounted to 512 in the test with E. coli 107115 (with 1 μg/mL adjuvant), 8 with E. coli 94474 (with 4 μg/mL adjuvant), 8 in the test on K. pneumoniae 113250 (with 8 μg/mL adjuvant) and 4 with K. pneumoniae 113254 (with 8 μg/mL adjuvant). The Fold-potentiation of ceftazidime in the test on E. coli 107115 (with 2 μg/mL adjuvant) amounted to 32.
